Reference: patent publication US20250129096A1, “ANNULATED 2-AMINO-3-CYANO THIOPHENES AND DERIVATIVES FOR THE TREATMENT OF CANCER” (Boehringer Ingelheim Int'l GmbH Corp., priority 2021, published 2025)

Legend:
KRAS (WT)::SOS1 = target: T1, KRAS (WT)::SOS1 (Homo sapiens, UniProt P01116, C118S); test: KRAS::SOS1 AlphaScreen binding assay, KRAS WT
T1 construct: KRAS (WT) 1-169, N-terminal 6His-tag for purification, cleaved off; 6His-tag (N, cleaved yes); TEV cleavage site
Description: (§1) Low IC50 values in this assay setting are indicative of strong inhibition of protein-protein interaction between SOS1 and KRAS:
(§2) These assays measure the inhibitory effect of compounds on KRAS mutant protein-protein interactions using the Alpha Screen technology by Perkin Elmer.
(§3) For the chosen highest assay concentration of 100 μM, 150 nL of compound solution are transferred from a 10 mM DMSO compound stock solution. A series of eleven fivefold dilutions per compound are transferred to the assay plate, compound dilutions are tested in duplicates. DMSO are added as backfill to a total volume of 150 nL.
(§4) The assays run on a fully automated robotic system in a darkened room below 100 Lux. To 150 nl of compound dilution 10 μl of a mix including KRAS mutant protein, SOS1 (final assay concentrations see above) and GDP nucleotide (Sigma G7127; final assay concentration 10 μM) in assay buffer (1×PBS, 0.1% BSA, 0.05% Tween 20) are added into columns 1-24. After 30 minutes incubation time 5 μl of Alpha Screen bead mix in assay buffer are added into columns 1-23.
(§5) Plates are kept at room temperature in a darkened incubator. After an additional 60 minutes incubation time the signal is measured in a PerkinElmer Envision HTS Multilabel Reader using the AlphaScreen specs from PerkinElmer.
(§6) IC50 values are calculated and analyzed with Boehringer Ingelheim's MEGALAB IC50 application using a 4 parametric logistic model.

[1] = system: GP2D cells (colorectal cancer, G12D); test: GP2D proliferation assay (120 h); type: cell-based; conditions: CellTiter-Glo
Description: GP2D cells (ATCC No. CRL-5807) are dispensed into white 384-well plates, flat and white bottom (Perkin Elmer, 6007680) at a density of 500 cells per well in 40 μl DMEM (Sigma, D6429)+1× GlutaMAX (Gibco, 35050038)+10% FCS (fetal calf serum). […] Compounds (10 mM stock in DMSO) are added at logarithmic dose series using the HP Digital Dispenser D300 (Tecan), including DMSO controls and normalizing for added DMSO. For the TO time point measurement, untreated cells are analyzed at the time of compound addition. Plates are incubated for 120 h, and cell viability is measured using CellTiter-Glo luminescent cell viability reagent (Promega product code G7570). Viability (stated as percent of control) is defined as relative luminescence units RLU of each well divided by the RLU of cells in DMSO controls. IC50 values are determined from viability measurements by non-linear regression using a four-parameter model.

[2] = system: MKN1 cells (gastric cancer, wt amplified); test: MKN1 CTG proliferation assay (120 h), assay 1; type: cell-based; conditions: Homo sapiens, MKN-1, CellTiter-Glo, 400 cells per well
Description: (§7) MKN1 cells (JCRB0252) are dispensed into white 384-well plates, flat and white bottom (Corning Costar, PNr.: 3570) at a density of 400 cells per well in 50 μL RPMI 1640 (PAN-Biotech, PNr.: P04-18047)+10% FCS (HyClone, PNr.: SH30084.03) (assay 1) or into black 384-well plates, flat and clear bottom (Greiner, PNr. 781091) at a density of 200 cells per well in 60 μl RPMI-1640 (Gibco #A10491)+10% FCS (HyClone, PNr.: SH30084.03)+ PenStrep (Gibco, PNr. 15140-122) (assay 2). […] Compounds (10 mM stock in DMSO) are added at logarithmic dose series using the HP Digital Dispenser D300 (Tecan) (assay 1+2) or the ECHO acoustic liquid handler system (Beckman Coulter) (assay 3), including DMSO controls and normalizing for added DMSO. Plates are incubated for 120 h, and cell viability is measured using CellTiter-Glo luminescent cell viability reagent (Promega product code G7570). Viability (stated as percent of control) is defined as relative luminescence units RLU of each well divided by the RLU of cells in DMSO controls. IC50 values are determined from viability measurements by non-linear regression using a four-parameter model.

[3] = system: MKN1 cells (gastric cancer, wt amplified); test: MKN1 CTG proliferation assay (120 h), assay 2; type: cell-based; conditions: Homo sapiens, MKN-1, CellTiter-Glo, 200 cells per well
Description: as §7

[4] = system: A375 cells (melanoma, wt, B-Raf mutant); test: A375 CTG proliferation assay (120 h), negative control; type: cell-based; conditions: Homo sapiens, A-375, CellTiter-Glo, negative control cell line
Description: A375 cells (ATCC CRL-1619) are dispensed into 384-well plates, flat and clear bottom (Greiner, PNr. 781091) at a density of 300 cells per well in 60 μL DMEM (Sigma D6429)+10% Fetal Calf Serum (HyClone, PNr.: SH30084.03) and incubated at 37° C. in a CO2 incubator overnight. The next day, compounds (10 mM stock in DMSO) are added at logarithmic dose series using the HP Digital Dispenser D300 (Tecan), including DMSO controls. Plates are incubated for 120 h, and cell viability is measured using CellTiter-Glo luminescent cell viability reagent (Promega product code G7570). Viability (stated as percent of control) is defined as relative luminescence units RLU of each well divided by the RLU of cells in DMSO controls. IC50 values are determined from viability measurements by non-linear regression using a four-parameter model.

KRAS (G13D)::SOS1 = target: T2, KRAS (G13D)::SOS1 (Homo sapiens, UniProt P01116, C118S/G13D); test: KRAS::SOS1 AlphaScreen binding assay, KRAS G13D
T2 construct: KRAS (G13D) 1-169, N-terminal 6His-tag for purification, cleaved off; 6His-tag (N, cleaved yes); TEV cleavage site
Description: as §1, §2, §3
as §4, with “After 30 minutes incubation time 5 μl of Alpha Screen bead mix in assay buffer are added into columns 1-23.” left out
as §5, §6

T1 sequence (P01116 1-169 isoform P01116-2 C118S): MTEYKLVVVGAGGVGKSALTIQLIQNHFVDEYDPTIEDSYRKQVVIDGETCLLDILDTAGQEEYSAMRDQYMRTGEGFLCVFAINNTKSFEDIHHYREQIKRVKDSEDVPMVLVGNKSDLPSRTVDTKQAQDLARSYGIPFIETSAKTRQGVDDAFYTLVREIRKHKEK
T2 sequence (P01116 1-169 isoform P01116-2 G13D/C118S): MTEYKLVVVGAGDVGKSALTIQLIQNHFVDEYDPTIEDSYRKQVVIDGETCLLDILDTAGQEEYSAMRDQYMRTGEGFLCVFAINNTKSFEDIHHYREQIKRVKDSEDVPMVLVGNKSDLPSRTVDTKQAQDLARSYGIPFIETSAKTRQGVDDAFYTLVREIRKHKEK

Row | SMILES | IC50 (KRAS (WT)::SOS1) [µM] | IC50 [1] [µM] | IC50 (KRAS (G13D)::SOS1) [µM] | IC50 [2] [µM] | IC50 [3] [µM] | IC50 [4] [µM]
1 | C[C@H]1CNCCCN1c1nccc(-c2noc3c2CCC[C@@]32CCCc3sc(N)c(C#N)c32)n1 (single isomer, unassigned) [IIb-5] | 0.012 | – | – | – | – | –
2 | C[C@H]1CNCCN1c1nccc(-c2noc3c2CCC[C@@]32CCCc3sc(N)c(C#N)c32)n1 [IIf-1] | – | 0.228 | – | 0.29 | 2.35 | > 3
3 | C[C@H]1[C@@H]2CCCN2CCCN1c1nccc(-c2onc3c2CCC[C@@]32CCCc3sc(N)c(C#N)c32)n1 [Id-1] | 0.009 | 0.069 | 0.089 | – | – | –

More lines, main results first:

Row | IC50 (KRAS (WT)::SOS1) [µM] | IC50 [1] [µM] | IC50 (KRAS (G13D)::SOS1) [µM] | SMILES | IC50 [2] [µM] | IC50 [3] [µM] | IC50 [4] [µM]
4 | 0.007 | 0.171 | – | C[C@H](Oc1ccnc(-c2noc3c2CCC[C@@]32CCCc3sc(N)c(C#N)c32)n1)[C@@H]1CCCN1C [IIb-3] | – | – | –
5 | – | 0.526 | – | C[C@H](Oc1nccc(-c2onc3c2CCC[C@@]32CCCc3sc(N)c(C#N)c32)n1)[C@@H]1C[C@@H](F)CN1C [Ie-2] | – | 3.46 | –
6 | 0.043 | 0.936 | 0.932 | C[C@H]1CNCCCN1c1nccc(-c2onc3c2CCC[C@@]32CCCc3sc(N)c(C#N)c32)n1 [If-1] | – | – | –
